Experimental data: ChEMBL document CHEMBL1153663, “Inhibition of human erythrocyte calpain I by novel quinolinecarboxamides” (Bioorg Med Chem Lett, 1995)
pIC50: −log10 of the molar value.

Columns and labels:
[1] = target: T1, Calpain-1 catalytic subunit (Homo sapiens, UniProt P07384); test: In vitro inhibitory activity against human erythrocyte Calpain 1
T1 sequence (P07384 whole entry): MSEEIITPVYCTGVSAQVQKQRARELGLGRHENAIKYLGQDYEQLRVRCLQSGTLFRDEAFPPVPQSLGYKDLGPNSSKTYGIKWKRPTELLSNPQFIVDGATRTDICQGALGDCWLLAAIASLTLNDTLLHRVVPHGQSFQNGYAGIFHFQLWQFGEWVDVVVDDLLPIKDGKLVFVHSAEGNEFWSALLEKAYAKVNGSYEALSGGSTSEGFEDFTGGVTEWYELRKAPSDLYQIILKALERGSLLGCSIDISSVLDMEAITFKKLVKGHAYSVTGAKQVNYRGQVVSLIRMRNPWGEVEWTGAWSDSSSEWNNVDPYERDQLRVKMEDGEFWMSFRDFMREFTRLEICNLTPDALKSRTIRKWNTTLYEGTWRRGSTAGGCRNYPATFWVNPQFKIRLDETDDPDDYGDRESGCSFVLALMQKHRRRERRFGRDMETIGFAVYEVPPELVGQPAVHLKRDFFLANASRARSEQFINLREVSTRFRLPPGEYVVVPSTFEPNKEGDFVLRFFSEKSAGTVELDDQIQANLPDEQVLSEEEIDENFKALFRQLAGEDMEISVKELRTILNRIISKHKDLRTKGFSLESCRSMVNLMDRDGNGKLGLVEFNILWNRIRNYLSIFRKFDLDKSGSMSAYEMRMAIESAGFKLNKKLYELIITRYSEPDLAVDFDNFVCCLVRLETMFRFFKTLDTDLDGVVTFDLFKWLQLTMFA

[2] = target: T2, Calpain-1 catalytic subunit (Homo sapiens) (UniProt P07384); test: In vitro inhibitory activity against human erythrocyte Calpain 1 at a concentration of 50 uM
T2 sequence (whole entry): T1 sequence (P07384 whole entry)

Cathepsin B = Cathepsin B (Homo sapiens, UniProt P07858); test: In vitro inhibitory activity against Cathepsin B
Procathepsin L = Procathepsin L (Homo sapiens, UniProt P07711); test: In vitro inhibitory activity against cathepsin L
Sequence of Procathepsin L (P07711 whole entry): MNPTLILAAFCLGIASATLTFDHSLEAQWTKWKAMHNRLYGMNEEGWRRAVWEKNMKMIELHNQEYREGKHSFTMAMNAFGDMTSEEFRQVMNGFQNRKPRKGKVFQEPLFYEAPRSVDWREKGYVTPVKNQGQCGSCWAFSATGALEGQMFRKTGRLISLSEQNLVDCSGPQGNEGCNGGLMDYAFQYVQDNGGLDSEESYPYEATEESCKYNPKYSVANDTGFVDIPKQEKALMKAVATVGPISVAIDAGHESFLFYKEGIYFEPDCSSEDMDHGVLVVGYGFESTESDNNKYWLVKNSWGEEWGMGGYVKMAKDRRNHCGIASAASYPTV

pIC50 [1]	inhibition [2] [%]	SMILES	other results
5.70		NC(=O)c1cn(-c2ccc(O)cc2Cl)c2cc(-c3ccoc3)ccc2c1=O	
5.70		NC(=O)c1cn(-c2ccc(O)cc2Cl)c2cc(-c3ccncc3Cl)ccc2c1=O	
	< 10	Cc1cncc(C)c1-c1ccc2c(=O)c(C(N)=O)cn(-c3ccc(O)cc3Cl)c2c1	
	< 10	CNC(=O)c1cn(-c2ccc(O)cc2)c2cc(-c3ccncc3)ccc2c1=O	
5.00		NC(=O)c1cn(-c2ccc(O)cc2Cl)c2cc(-c3cccnc3)ccc2c1=O	
6.30		Cc1cc(O)ccc1-n1cc(C(N)=O)c(=O)c2ccc(-c3ccncc3)cc21	
6.22		NC(=O)c1cn(-c2ccc(O)cc2Cl)c2cc(-n3cccn3)ccc2c1=O	
6.52		CC(=O)N[C@@H](CC(C)C)C(=O)N[C@@H](CC(C)C)C(=O)N[C@H](C=O)CCCNC(=N)N [LEUPEPTIN]	
	< 10	CN(C)C(=O)c1cn(-c2ccc(O)cc2)c2cc(-c3ccncc3)ccc2c1=O	
	< 10	O=C(NO)c1cn(-c2ccc(O)cc2)c2cc(-c3ccncc3)ccc2c1=O	
4.70		O=C(O)c1cn(-c2ccc(O)cc2)c2cc(-c3ccncc3)ccc2c1=O	
4.70		NC(=O)c1cn(-c2ccc(O)cc2C(F)(F)F)c2cc(-c3ccncc3)ccc2c1=O	
5.70		NC(=O)c1cn(-c2ccc(O)cc2Cl)c2cc(-c3cccnn3)ccc2c1=O	
5.15		NC(=O)c1cn(-c2ccc(O)cc2F)c2cc(-c3ccncc3)ccc2c1=O	
4.52		NC(=O)c1cn(-c2ccc(O)cc2Cl)c2cc(-c3ccnc(F)c3)ccc2c1=O	
		NC(=O)c1cn(-c2ccc(O)cc2)c2cc(-c3ccncc3)ccc2c1=O	pIC50 (Cathepsin B): 4.49; pIC50 (Procathepsin L): 4.43
6.30		NC(=O)c1cn(-c2ccc(O)cc2Cl)c2cc(-c3ccncc3)ccc2c1=O	pIC50 (Cathepsin B): 4.60; pIC50 (Procathepsin L): 4.66
4.52		NC(=O)c1cn(-c2ccc(O)cc2Cl)c2cc(-c3ccccn3)ccc2c1=O	
	< 10	Cc1cc(-n2cc(C(N)=O)c(=O)c3ccc(-c4ccncc4)cc32)cc(C)c1O	
	< 10	NC(=O)c1cn(-c2ccc(O)cc2)c2cc(-c3ccccc3)ccc2c1=O	
	< 10	NC(=O)c1cn(-c2ccc(O)cc2)c2ccccc2c1=O	
	< 10	O=C(NCCO)c1cn(-c2ccc(O)cc2)c2cc(-c3ccncc3)ccc2c1=O	
